Reference: PMC8590616 (European Journal of Pharmacology, 2021)
Several values for one entry are separate records, joined by “and”; a condition that tells them apart may be missing. Equal values may be shown once. Read-outs that look alike come from different tables or passages of the source.

How the values were obtained:
[1] = cited from earlier work
ICaL [2] = conditions: read-out: ICaL IC50; cat Purkinje fibers ref Sánchez-Chapula et al. (2001); cited from earlier work
INa peak [3] = conditions: human atrial myocytes ref Borsini et al. (2012), cited from earlier work
IKr [4] = conditions: read-out: IKr IC50, cited from earlier work
hERG1 [5] = target: T1, hERG1 (Homo sapiens, UniProt Q12809); experiment: Automated patch-clamp; conditions: for Hill coefficient nH, hERG inhibition: automated patch-clamp, RT
IKs = conditions: human atrial myocytes ref Borsini et al. (2012), cited from earlier work
If = conditions: read-out: If IC50, cited from earlier work
IK1 = conditions: read-out: IK1 IC50; HEK293 ref Noujaim et al. (2011); cited from earlier work
[6] = tested on: peak L-type Ca2+ current (ICaL) in Pluricyte cardiomyocytes; experiment: hiPSC-CM β-escin-perforated voltage-clamp: peak ICaL; format: cell-based; conditions: Homo sapiens, Cardiomyocyte; for IC50: read-out: ICaL IC50
ICaL [7] = conditions: read-out: ICaL IC50; HEK293 ref Jordaan et al. (2021); cited from earlier work
hNav1.5 [8] = target: T2, hNav1.5 (Homo sapiens, UniProt Q14524); experiment: Late INa in presence of ATX-II 20 nM at RT, HEK293 cells; conditions: for IC50: INa late IC50, hNav1.5, ATX-II 20 nM, end of tail current at 0 mV
hNav1.5 [9] = target: T2, hNav1.5; experiment: Peak INa in presence of ATX-II 20 nM at RT, HEK293 cells; conditions: for IC50: INa peak IC50, hNav1.5, ATX-II 20 nM, Hill fit
hKv7.1+hMinK = hKv7.1+hMinK (Homo sapiens, UniProt P51787); experiment: IKs double-step voltage protocol, HEK293 cells; format: cell-based; conditions: for effect on plateau IKs level: highest concentration applied (100 μM)
IKr [10] = conditions: read-out: IKr IC50; Xenopus laevis oocytes ref Sánchez-Chapula et al. (2002); cited from earlier work
IKr [11] = conditions: read-out: IKr IC50, cited from earlier work; remark: listed apart in the source
[12] = tested on: peak hERG current (IKr) in Pluricyte cardiomyocytes; experiment: hiPSC-CM β-escin-perforated voltage-clamp: peak IKr; format: cell-based, human; conditions: 5 μM; hiPSC-CM; individual experiments and average ± SD
hERG (peak IKr) = experiment: as above; format: cell-based, human; conditions: human
[13] = tested on: peak voltage-dependent Na+ current (INa) in Pluricyte cardiomyocytes; experiment: hiPSC-CM β-escin-perforated voltage-clamp: peak INa; format: cell-based; conditions: Homo sapiens, Cardiomyocyte; for IC50: read-out: peak INa IC50 in hiPSC-CM
hERG1 [14] = target: T1, hERG1; experiment: Manual patch-clamp, standard 2-step hERG protocol at PT; format: cell-based
INa peak [15] = conditions: read-out: INa peak IC50; CHO, PT ref Delaunois et al. (2021); cited from earlier work
INa peak [16] = conditions: read-out: INa peak IC50; cat Purkinje fibers ref Sánchez-Chapula et al. (2001); cited from earlier work
hERG1 [17] = target: T1, hERG1; experiment: Manual whole-cell patch-clamp, standard 2-step hERG protocol at RT, HEK293T; conditions: for Hill coefficient nH, hERG inhibition: manual patch-clamp, RT
INa peak [18] = conditions: read-out: INa peak IC50; HEK293 ref Jordaan et al. (2021); cited from earlier work
hKir2.1 = target: T3, hKir2.1 (Homo sapiens, UniProt P63252); conditions: HEK-293T, read-out: IK1 (hKir2.1) IC50
T3 sequence (P63252 1-427): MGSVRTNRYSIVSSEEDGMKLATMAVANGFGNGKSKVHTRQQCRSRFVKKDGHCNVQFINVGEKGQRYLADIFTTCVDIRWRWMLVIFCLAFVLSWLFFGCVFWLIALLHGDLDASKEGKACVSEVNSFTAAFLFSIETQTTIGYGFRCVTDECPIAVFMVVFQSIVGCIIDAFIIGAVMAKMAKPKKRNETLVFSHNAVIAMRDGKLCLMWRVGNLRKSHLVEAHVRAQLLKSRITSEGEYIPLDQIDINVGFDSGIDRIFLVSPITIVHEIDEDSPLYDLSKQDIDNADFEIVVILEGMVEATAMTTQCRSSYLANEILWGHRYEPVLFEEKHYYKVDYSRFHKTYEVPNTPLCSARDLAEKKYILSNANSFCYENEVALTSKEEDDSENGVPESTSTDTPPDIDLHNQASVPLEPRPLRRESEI

hNav1.5 [19] = target: T2, hNav1.5; experiment: Peak INa at PT, manual patch-clamp, HEK293 cells; format: cell-based; conditions: for INa peak Hill coefficient nH: PT
Ito = conditions: read-out: Ito IC50; rat ventricular myocytes ref Wagner et al. (2010); cited from earlier work
[20] = tested on: steady funny current (If) in Pluricyte cardiomyocytes; experiment: hiPSC-CM β-escin-perforated voltage-clamp: steady funny current; format: cell-based; conditions: Homo sapiens, Cardiomyocyte, read-out: If IC50
INa late = conditions: read-out: INa late IC50, CHO, cited from earlier work
ICaL [21] = conditions: read-out: ICaL IC50; CHO, RT ref Delaunois et al. (2021); cited from earlier work
IKr [22] = conditions: cited from earlier work
ICaL [23] = conditions: cited from earlier work
[24] = standard 12-compounds panel ref Dutta et al., (2017)
[25] = CHO, PT ref Delaunois et al. (2021)
[26] = CHO, PT ref TeBay et al. (2021)
[27] = HEK293, RT ref Delaunois et al. (2021)
[28] = read-out: peak ICaL, % of control values
[29] = read-out: peak INa, % of control values
[30] = 3 μM, guinea pig SAN cells ref Capel et al. (2015)

T2 sequence (Q14524 whole entry): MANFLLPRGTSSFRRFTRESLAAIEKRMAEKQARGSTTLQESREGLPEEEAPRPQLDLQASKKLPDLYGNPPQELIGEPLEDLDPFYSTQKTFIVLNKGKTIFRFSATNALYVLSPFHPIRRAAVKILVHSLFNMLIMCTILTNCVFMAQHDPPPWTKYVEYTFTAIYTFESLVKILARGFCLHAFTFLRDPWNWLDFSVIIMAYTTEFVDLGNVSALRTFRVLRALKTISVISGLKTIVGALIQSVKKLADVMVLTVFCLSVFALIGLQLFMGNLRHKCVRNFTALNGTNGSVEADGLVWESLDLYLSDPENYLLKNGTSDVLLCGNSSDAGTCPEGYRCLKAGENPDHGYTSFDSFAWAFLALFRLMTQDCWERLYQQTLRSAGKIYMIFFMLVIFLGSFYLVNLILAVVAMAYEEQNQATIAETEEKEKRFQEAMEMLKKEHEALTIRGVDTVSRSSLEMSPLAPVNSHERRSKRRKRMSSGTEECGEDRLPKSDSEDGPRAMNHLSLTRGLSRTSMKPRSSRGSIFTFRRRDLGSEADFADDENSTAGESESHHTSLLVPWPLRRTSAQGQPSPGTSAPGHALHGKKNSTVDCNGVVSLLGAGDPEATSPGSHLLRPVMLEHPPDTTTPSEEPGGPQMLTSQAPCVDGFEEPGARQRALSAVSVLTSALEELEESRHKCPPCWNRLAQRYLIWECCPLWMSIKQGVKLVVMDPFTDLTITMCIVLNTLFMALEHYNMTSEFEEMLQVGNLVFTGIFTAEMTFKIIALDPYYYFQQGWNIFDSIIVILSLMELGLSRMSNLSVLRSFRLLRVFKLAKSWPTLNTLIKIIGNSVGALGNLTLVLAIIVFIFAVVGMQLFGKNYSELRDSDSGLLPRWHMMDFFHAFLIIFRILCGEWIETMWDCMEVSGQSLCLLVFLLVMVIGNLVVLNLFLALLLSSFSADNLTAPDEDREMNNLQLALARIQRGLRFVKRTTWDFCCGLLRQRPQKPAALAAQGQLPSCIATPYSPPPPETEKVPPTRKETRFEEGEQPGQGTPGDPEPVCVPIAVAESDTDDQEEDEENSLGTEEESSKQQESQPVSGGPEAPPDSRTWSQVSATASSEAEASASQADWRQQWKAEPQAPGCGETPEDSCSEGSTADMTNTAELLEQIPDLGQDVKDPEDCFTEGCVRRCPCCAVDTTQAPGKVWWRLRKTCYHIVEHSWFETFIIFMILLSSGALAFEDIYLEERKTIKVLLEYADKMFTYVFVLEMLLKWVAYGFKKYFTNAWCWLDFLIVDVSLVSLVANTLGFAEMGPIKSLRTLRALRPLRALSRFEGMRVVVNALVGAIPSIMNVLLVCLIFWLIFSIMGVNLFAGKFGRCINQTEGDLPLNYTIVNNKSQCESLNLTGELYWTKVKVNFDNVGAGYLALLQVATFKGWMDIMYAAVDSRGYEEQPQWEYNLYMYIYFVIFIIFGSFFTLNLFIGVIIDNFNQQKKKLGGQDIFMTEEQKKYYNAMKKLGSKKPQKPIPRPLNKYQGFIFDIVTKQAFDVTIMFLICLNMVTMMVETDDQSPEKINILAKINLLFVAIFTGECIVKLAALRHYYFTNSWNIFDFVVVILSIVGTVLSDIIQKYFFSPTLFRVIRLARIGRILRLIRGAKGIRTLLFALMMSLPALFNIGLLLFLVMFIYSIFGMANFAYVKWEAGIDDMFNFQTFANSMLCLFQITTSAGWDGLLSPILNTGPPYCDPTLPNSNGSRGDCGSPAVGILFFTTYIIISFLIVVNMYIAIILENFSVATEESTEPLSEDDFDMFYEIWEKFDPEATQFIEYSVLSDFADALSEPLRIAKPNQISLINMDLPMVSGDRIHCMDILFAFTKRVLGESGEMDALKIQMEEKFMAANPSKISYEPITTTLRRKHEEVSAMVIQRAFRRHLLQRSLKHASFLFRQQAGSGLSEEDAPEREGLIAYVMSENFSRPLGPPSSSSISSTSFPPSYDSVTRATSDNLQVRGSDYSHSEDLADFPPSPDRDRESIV
Chain of hKv7.1+hMinK (P51787 whole entry): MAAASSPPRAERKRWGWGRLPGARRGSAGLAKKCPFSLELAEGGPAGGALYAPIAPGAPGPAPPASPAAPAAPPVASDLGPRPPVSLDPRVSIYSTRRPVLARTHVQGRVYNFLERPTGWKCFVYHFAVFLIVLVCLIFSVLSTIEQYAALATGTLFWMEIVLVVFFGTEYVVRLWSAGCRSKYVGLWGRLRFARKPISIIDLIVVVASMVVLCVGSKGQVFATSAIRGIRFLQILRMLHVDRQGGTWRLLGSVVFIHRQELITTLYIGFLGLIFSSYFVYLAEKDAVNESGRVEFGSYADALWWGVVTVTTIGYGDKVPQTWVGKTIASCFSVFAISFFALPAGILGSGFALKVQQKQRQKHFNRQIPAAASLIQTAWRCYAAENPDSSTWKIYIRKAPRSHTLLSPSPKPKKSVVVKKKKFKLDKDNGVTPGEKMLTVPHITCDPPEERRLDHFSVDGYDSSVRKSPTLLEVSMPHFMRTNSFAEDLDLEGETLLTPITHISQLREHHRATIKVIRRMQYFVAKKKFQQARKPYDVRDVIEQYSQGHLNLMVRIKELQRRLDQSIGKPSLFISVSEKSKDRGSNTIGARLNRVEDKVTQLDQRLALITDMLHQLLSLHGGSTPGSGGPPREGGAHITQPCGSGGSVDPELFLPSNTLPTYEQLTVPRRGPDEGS
T1 sequence (Q12809 whole entry): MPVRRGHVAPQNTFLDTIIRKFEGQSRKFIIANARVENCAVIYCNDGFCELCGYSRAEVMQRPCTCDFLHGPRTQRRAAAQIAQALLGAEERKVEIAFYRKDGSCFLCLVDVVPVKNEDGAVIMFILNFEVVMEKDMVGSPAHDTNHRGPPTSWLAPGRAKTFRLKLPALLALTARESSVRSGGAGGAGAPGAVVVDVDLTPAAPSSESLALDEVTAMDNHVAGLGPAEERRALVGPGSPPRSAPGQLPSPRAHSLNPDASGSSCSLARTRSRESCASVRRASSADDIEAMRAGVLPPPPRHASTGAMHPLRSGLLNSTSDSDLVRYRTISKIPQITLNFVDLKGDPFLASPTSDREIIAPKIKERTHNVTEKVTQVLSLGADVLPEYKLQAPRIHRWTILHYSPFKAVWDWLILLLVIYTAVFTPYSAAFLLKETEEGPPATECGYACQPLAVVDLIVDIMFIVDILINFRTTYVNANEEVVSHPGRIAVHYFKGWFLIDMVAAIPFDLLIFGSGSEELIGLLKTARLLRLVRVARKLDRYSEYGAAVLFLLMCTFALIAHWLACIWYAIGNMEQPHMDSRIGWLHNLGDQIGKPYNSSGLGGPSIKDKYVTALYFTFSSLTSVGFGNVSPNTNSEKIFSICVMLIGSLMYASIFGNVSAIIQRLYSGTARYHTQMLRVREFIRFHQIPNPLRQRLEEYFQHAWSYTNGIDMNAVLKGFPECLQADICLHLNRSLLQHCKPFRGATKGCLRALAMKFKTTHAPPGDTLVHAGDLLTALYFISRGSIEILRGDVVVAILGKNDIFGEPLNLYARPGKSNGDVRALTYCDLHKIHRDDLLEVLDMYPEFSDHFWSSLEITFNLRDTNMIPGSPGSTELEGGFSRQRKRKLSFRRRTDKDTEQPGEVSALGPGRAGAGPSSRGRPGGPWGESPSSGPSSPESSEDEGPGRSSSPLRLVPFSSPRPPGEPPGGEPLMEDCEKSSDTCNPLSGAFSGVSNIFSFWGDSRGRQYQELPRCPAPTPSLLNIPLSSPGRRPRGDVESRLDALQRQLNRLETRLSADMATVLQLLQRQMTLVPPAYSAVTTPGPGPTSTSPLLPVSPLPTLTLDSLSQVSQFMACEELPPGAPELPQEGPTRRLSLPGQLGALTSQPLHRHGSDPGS

For `CN(C)CCCN1c2ccccc2Sc2ccc(Cl)cc21` [Chlorpromazine], the Cmax [1, 24] is given as 38 nM.

In the case of `COc1ccc([C@@H]2Sc3ccccc3N(CCN(C)C)C(=O)[C@@H]2OC(C)=O)cc1` [Diltiazem], the Cmax [1, 24] is given as 122 nM.

For `Cc1cccc(C)c1OCC(C)N` (stereo not shown) [Mexiletine], the Cmax [1, 24] is listed as 4130 nM.

For `Cc1nccn1CC1CCc2c(c3ccccc3n2C)C1=O` (stereo not shown) [Ondansetron], the Cmax [1, 24] is given as 139 nM.

In the case of `COc1ccccc1OCC(O)CN1CCN(CC(=O)Nc2c(C)cccc2C)CC1` (stereo not shown) [Ranolazine], the Cmax [1, 24] is listed as 1950 nM.

For `CC(C)NCC(O)c1ccc(NS(C)(=O)=O)cc1` (stereo not shown) [Sotalol], the Cmax [1, 24] is listed as 14700 nM.

In the case of `CC(C)(C)c1ccc(C(O)CCCN2CCC(C(O)(c3ccccc3)c3ccccc3)CC2)cc1` (stereo not shown) [Terfenadine], the Cmax [1, 24] is listed as 4 nM.

In the case of `CCN(CC)CCCC(C)Nc1ccnc2cc(Cl)ccc12` (stereo not shown) [chloroquine], the IC50 (ICaL [2]) is listed as 21.2 µM, the “INa peak % block” value (INa peak [3]; 30 μM) is listed as 42.6% and the IC50 (INa peak [3]; read-out: INa peak IC50) is listed as 40.4 µM. For the same compound, the IC50 (IKr [4]; CHO ref Jordaan et al. (2021)) was 7.77 µM, the IC50 (IKr [4]; [25]) was 1.03 µM and the IC50 (IKr [4]; [26]) was 1.47 µM. For the same compound, the “Hill coefficient nH, hERG inhibition” value (hERG1 [5]) was 1.36, the IKs % block (IKs; 10 μM) was 8% and the IC50 (IKs; read-out: IKs IC50) was 115 µM. For the same compound, the IC50 (If; [27]) was 228 µM, the IC50 (IK1) was 1.2 µM and the IC50 [6] was 30.7 µM. For the same compound, the activity at 5 µM [6, 28] was 86 ± 9%, the IC50 (ICaL [7]) was 3.05 µM and the “INa late Hill coefficient nH” value (hNav1.5 [8]) was 0.85. For the same compound, the IC50 (hNav1.5 [8]) was 30.4 µM, the “INa peak Hill coefficient nH” value (hNav1.5 [9]) was 0.98 and the IC50 (hNav1.5 [9]) was 159 µM. The IC50 (hKv7.1+hMinK) was greater than 100 µM, the “effect on plateau IKs level” value (hKv7.1+hMinK) was “only slightly inhibited” and the IC50 (IKr [10]) was 8.4 µM. For the same compound, the IC50 (IKr [11]; HEK293, RT ref Borsini et al. (2012)) was 0.96 µM, the IC50 (IKr [11]; HEK293, RT ref Traebert et al. (2004)) was 2.5 µM and the “peak IKr % inhibition” value [12] was 62.78 ± 11.12%. It also gave an activity at 5 µM (hERG (peak IKr)) of 37.2%, a potency estimated from few doses (hERG (peak IKr)) of 2.96 µM and an IC50 [13] of 45 µM. The inhibition at 5 µM ([13]; read-out: peak INa average inhibition) was 10%, the activity at 5 µM [13, 29] was 90 ± 12% and the “Hill coefficient nH, hERG inhibition” value (hERG1 [14]) was 1.25. For the same compound, the IC50 (INa peak [15]) was 14 µM, the IC50 (INa peak [16]) was 12.2 µM and the “Hill coefficient nH, hERG inhibition” value (hERG1 [17]) was 0.90. The IC50 (INa peak [18]) was 8.48 µM, the potency estimated from few doses (hKir2.1) was 5.86 µM and the IC50 (hNav1.5 [19]) was 39.3 µM. The “INa peak Hill coefficient nH” value (hNav1.5 [19]) was 0.97, the IC50 (Ito) was 4600 µM and the Cmax ([1]; Table 2 ref Borsini et al. (2012)) was 410 nM. The “Cmax, maximal free plasma therapeutic concentration” value ([1]; usual doses ref Borsini et al., 2012) was 0.41 µM, the IC50 [20] was greater than 162 µM and the IC50 (INa late; PT ref Delaunois et al. (2021)) was 11.6 µM. For the same compound, the IC50 (INa late; RT ref Delaunois et al. (2021)) was 109 µM and the IC50 (ICaL [21]) was 17.9 µM.

For `CCN(CCO)CCCC(C)Nc1ccnc2cc(Cl)ccc12` (stereo not shown) [hydroxychloroquine], the IC50 (IKr [4]; CHO ref Jordaan et al. (2021)) is listed as 9.7 µM, the IC50 (IKr [4]; [25]) is listed as 2.66 µM and the IC50 (IKr [4]; [26]) is listed as 3.78 µM. The IC50 (IKr [4]; CHO, RT ref Delaunois et al. (2021)) was 6.97 µM, the IC50 (hERG1 [5]) was 3.42 µM and the “Hill coefficient nH, hERG inhibition” value (hERG1 [5]) was 1.02. For the same compound, the IKr % block (IKr [22]; [30]) was 35%, the IC50 (IKr [22]; read-out: IKr IC50, guinea pig SAN cells, PT ref Capel et al. (2015)) was 5.6 µM and the IC50 (If; HEK293, PT ref Delaunois et al. (2021)) was greater than 300 µM. The IC50 (If; [27]) was 372 µM, the IC50 [6] was 90 µM and the activity at 10 µM [6, 28] was 90 ± 12%. For the same compound, the IC50 (ICaL [7]) was 7.64 µM, the “INa late Hill coefficient nH” value (hNav1.5 [8]) was 0.89 and the IC50 (hNav1.5 [8]) was 64.9 µM. The “INa peak Hill coefficient nH” value (hNav1.5 [9]) was 0.81, the IC50 (hNav1.5 [9]) was 96.2 µM and the IC50 (hKv7.1+hMinK) was greater than 100 µM. The “effect on plateau IKs level” value (hKv7.1+hMinK) was “only slightly inhibited”, the IC50 [13] was 52.5 µM and the activity at 10 µM [13, 29] was 84 ± 16%. The IC50 (INa peak [15]) was 17 µM, the IC50 (hERG1 [17]) was 4.79 µM and the “Hill coefficient nH, hERG inhibition” value (hERG1 [17]) was 0.85. For the same compound, the IC50 (INa peak [18]) was greater than 300 µM, the ICaL % block (ICaL [23]; [30]) was 12% and the IC50 (ICaL [23]; read-out: ICaL IC50, guinea pig SAN cells, PT ref Capel et al. (2015)) was 22 µM. For the same compound, the potency estimated from few doses (hKir2.1) was 29.3 µM, the IC50 (hNav1.5 [19]) was 42.4 µM and the “INa peak Hill coefficient nH” value (hNav1.5 [19]) was 1.02. The Cmax ([1]; Table 2 ref Yao et al. (2020)) was 495 nM, the “Cmax, maximal free plasma therapeutic concentration” value ([1]; usual doses ref Yao et al., 2020) was 0.495 μM and 215 ng/ml and the “Cmax, maximal free plasma therapeutic concentration” value ([1]; usual doses ref Yao et al., 2020, listed as Hydroxychloroquine) was 0.495 μM and 215 ng/ml. For the same compound, the IC50 [20] was greater than 990 µM, the IC50 (INa late; PT ref Delaunois et al. (2021)) was 21.4 µM and the IC50 (INa late; RT ref Delaunois et al. (2021)) was 92.9 µM. For the same compound, the IC50 (ICaL [21]) was 66.3 µM.
